In patent publication US11718624B2, “Solid state forms of substituted pyrazolopyrimidines and uses thereof” (KSQ Therapeutics, Inc., priority 2020, dated 2023):

Assay: Co-crystal screening experiments with Formula II (Table 17)
Assay type: physicochemical
Settings: XRPD
Method: Additional co-crystal screens were carried out to identify further solid state forms of Formula (II).
Differential scanning calorimetry (DSC) was carried out with a TA Instruments Q2000 instrument (closed aluminum sample pan aluminum sample pan with a pinhole in the lid, heating rate 20 K/min). The melting point is understood as the peak maximum.
Light microscopy was performed on a Leitz Orthoplan polarized microscope part #130880, generally a 10×10 magnification was applied.
X-ray powder diffraction (XRPD) was carried out with a Stoe Stadi P diffractometer equipped with a Mythen1K detector operating with Cu-Kα1 radiation. The measurements with this instrument were performed in transmission at a tube voltage of 40 kV and 40 mA tube power. A curved Ge monochromator allows testing with Cu-Kα1 radiation. The following parameters were set: 0.02° 2θ step size, 12 s step time, 1.5-50.5° 2θ scanning range, and 1° 2θ detector step (detector mode in step scan). For a typical sample preparation about 10 mg of sample was placed between two acetate foils and mounted into a Stoe transmission sample holder. The sample was rotated during the measurement. All sample preparation and measurement was done in an ambient air atmosphere.
TG-FTIR measurements were carried out with a Netzsch Thermo-Microblanace TG209 coupled to a Bruker FTIR Spectrometer Vector 22 (sample pans with a pinhole, N2 atmosphere, heating rate 10° C./min to 300 or 350° C.).
The starting material was a freebase form of Formula (II).

Result (co-crystal screening) (Experiment 1: material as received): Free base | Result (co-crystal screening) (Experiment 6: benzoic acid (1:1.1 eq), EtOAc 0.5 mL/heptane 3 mL, agitated 1 day): Free base | Result (co-crystal screening) (Experiment 16: gallic acid in acetone, evaporation, glassy residue treated with water/isopropanol): Free base | Result (co-crystal screening) (Experiment 17: 300 mg, 430 mg gallic acid, EtOH, evaporated three days): Gallic acid
Structure (SMILES): COc1ncnc(C2CC2)c1-c1ncc2cnn(Cc3ccc(-c4nc(C(F)(F)F)cn4C(C)C)cc3)c2n1 [Compound of Formula (II), 6-(4-cyclopropyl-6-methoxypyrimidin-5-yl)-1-(4-(1-isopropyl-4-(trifluoromethyl)-1H-imidazol-2-yl)benzyl)-1H-pyrazolo[3,4-d]pyrimidine]
